# Results reported in ChEMBL document CHEMBL3045657, “Synthesis and biological evaluation of naphthalene, furan and pyrrole based chalcones as cytotoxic and antimicrobial agents” (2012).
# Active and inactive are the calls of the source. The rule behind the calls is not given here.
# Legend:
# Assay type in all cases: functional
# PC-3 = assay: Cytotoxicity against Homo sapiens (human) PC3 cells assessed as cell growth inhibition at 1 x 10^-5 M after 48 hr by SRB assay; conditions: for inhibition of growth at 10 µM: PC-3, 48 h, read-out: GI
# Staphylococcus aureus = assay: Antibacterial activity against Staphylococcus aureus MTCC 96 after 24 hr by serial tube dilution method
# Escherichia coli = assay: Antibacterial activity against Escherichia coli MTCC 82 after 24 hr by serial tube dilution method
# IMR-32 = assay: Cytotoxicity against Homo sapiens (human) IMR32 cells assessed as cell growth inhibition at 1 x 10^-5 M after 48 hr by SRB assay; conditions: for inhibition of growth at 10 µM: IMR-32, 48 h, read-out: GI
# OVCAR = assay: Cytotoxicity against Homo sapiens (human) OVCAR cells assessed as cell growth inhibition at 1 x 10^-5 M after 48 hr by SRB assay; conditions: for inhibition of growth at 10 µM: read-out: GI
# HEp-2 = assay: Cytotoxicity against Homo sapiens (human) Hep2 cells assessed as cell growth inhibition at 1 x 10^-5 M after 48 hr by SRB assay; conditions: for inhibition of growth at 10 µM: HEp-2, 48 h, read-out: GI
# Bacillus subtilis = assay: Antibacterial activity against Bacillus subtilis MTCC 2451 after 24 hr by serial tube dilution method
# Aspergillus niger = assay: Antifungal activity against Aspergillus niger MTCC 1344 after 48 hr by serial tube dilution method; conditions: MTCC 1344, 48 h
# Salmonella typhi = assay: Antibacterial activity against Salmonella enterica subsp. enterica serovar Typhi MTCC 1251 after 24 hr by serial tube dilution method
# Pseudomonas aeruginosa = assay: Antibacterial activity against Pseudomonas aeruginosa MTCC 2642 after 24 hr by serial tube dilution method
# Candida albicans = assay: Antifungal activity against Candida albicans MTCC 3018 after 48 hr by serial tube dilution method; conditions: MTCC 3018, 48 h
Compound,inhibition of growth at 10 µM (PC-3) [%],"MIC (Staphylococcus aureus; MTCC 96, 24 h) [µg/mL]","MIC (Escherichia coli; MTCC 82, 24 h) [µg/mL]",inhibition of growth at 10 µM (IMR-32) [%],inhibition of growth at 10 µM (OVCAR) [%],inhibition of growth at 10 µM (HEp-2) [%],"MIC (Bacillus subtilis; MTCC 2451, 24 h) [µg/mL]",MIC (Aspergillus niger) [µg/mL],"MIC (Salmonella typhi; MTCC 1251, 24 h) [µg/mL]","MIC (Pseudomonas aeruginosa; MTCC 2642, 24 h) [µg/mL]",MIC (Candida albicans) [µg/mL],growth inhibition (GI) (IMR-32),growth inhibition (GI) (OVCAR),growth inhibition (GI) (HEp-2),growth inhibition (GI) (PC-3),MIC (Bacillus subtilis) [µg/mL],MIC (Salmonella typhi) [µg/mL],MIC (Staphylococcus aureus) [µg/mL],MIC (Escherichia coli) [µg/mL],MIC (Pseudomonas aeruginosa) [µg/mL]
O=C(/C=C/c1ccc([N+](=O)[O-])cc1)c1ccc[nH]1,11,250,500,11,14,13,,,,,,,,,,,,,,
COc1ccc(/C=C/C(=O)c2ccco2)cc1O,21,31.2,62.5,16,23,19,62.5,250,62.5,125,250,,,,,,,,,
COc1cccc(/C=C/C(=O)c2ccc[nH]2)c1OC,31,,,28,24,33,,,,,,,,,,,,,,
O=C(/C=C/c1ccc2c(c1)OCO2)c1ccco1,21,62.5,125,16,11,13,31.2,500,125,125,,,,,,,,,,
O=C(/C=C/c1cccc([N+](=O)[O-])c1)c1ccc2ccccc2c1,16,125,250,11,13,17,,,,,,,,,,,,,,
CC1(C)S[C@@H]2[C@H](NC(=O)[C@H](N)c3ccc(O)cc3)C(=O)N2[C@H]1C(=O)O [AMOXICILLIN],,0.2,0.25,,,,0.2,,0.2,0.3,,,,,,,,,,
O=C(/C=C/c1ccc2c(c1)OCO2)c1ccc2ccccc2c1,42,62.5,125,39,46,42,125,,125,250,,,,,,,,,,
O=C(/C=C/c1cccc(Cl)c1Cl)c1ccc[nH]1,11,7.8,15.6,,,15,31.2,125,15.6,7.8,250,inactive,inactive,,,,,,,
O=C(/C=C/c1ccccc1)c1ccc[nH]1,22,125,500,14,18,23,250,,500,,,,,,,,,,,
COc1ccc(/C=C/C(=O)c2ccco2)cc1OC,29,31.2,15.6,33,,27,31.2,125,15.6,31.2,250,,inactive,,,,,,,
COc1cc(/C=C/C(=O)c2ccco2)cc(OC)c1OC,42,15.6,62.5,49,28,47,31.2,62.5,31.2,15.6,62.5,,,,,,,,,
O=C(/C=C/c1ccccc1)c1ccc2ccccc2c1,28,250,500,19,21,27,,,,500,,,,,,,,,,
O=C(/C=C/c1ccccc1)c1ccco1,19,250,,13,,,250,,,,,,inactive,inactive,,,,,,
COc1ccc(/C=C/C(=O)c2ccc3ccccc3c2)c(OC)c1OC,81,3.9,15.6,75,88,72,3.9,62.5,15.6,7.8,125,,,,,,,,,
COc1ccc(/C=C/C(=O)c2ccc3ccccc3c2)cc1OC,53,62.5,125,51,49,53,62.5,250,62.5,125,500,,,,,,,,,
O=C(/C=C/c1cccc(Cl)c1Cl)c1ccc2ccccc2c1,,31.2,31.2,,11,9,31.2,250,62.5,62.5,250,inactive,,,inactive,,,,,
COc1ccc(/C=C/C(=O)c2ccc3ccccc3c2)cc1O,47,15.6,62.5,61,52,57,31.2,,125,250,,,,,,,,,,
COc1ccc(OC)c(/C=C/C(=O)c2ccc3ccccc3c2)c1,49,125,250,51,52,47,125,,250,,,,,,,,,,,
COc1ccc(OC)c(/C=C/C(=O)c2ccco2)c1,23,62.5,31.2,31,,29,31.2,125,62.5,31.2,125,,inactive,,,,,,,
OC(Cn1cncn1)(Cn1cncn1)c1ccc(F)cc1F [FLUCONAZOLE],,,,,,,,0.2,,,0.3,,,,,,,,,
COc1ccc(/C=C/C(=O)c2ccc3ccccc3c2)cc1,33,,,36,31,29,,,,,,,,,,,,,,
O=C(/C=C/c1c(Cl)cccc1Cl)c1ccc[nH]1,,15.6,15.6,12,,16,31.2,125,31.2,31.2,125,,inactive,,inactive,,,,,
O=C(/C=C/c1cccc([N+](=O)[O-])c1)c1ccc[nH]1,13,125,250,14,,17,250,500,500,,,,inactive,,,,,,,
O=C(/C=C/c1cccc([N+](=O)[O-])c1)c1ccco1,,125,125,,13,16,125,,,125,,inactive,,,inactive,,,,,
O=C(/C=C/c1ccco1)c1ccc2ccccc2c1,16,125,,13,,21,250,,500,250,,,inactive,,,,,,,
O=C(/C=C/c1ccc2ccccc2c1)c1ccc2ccccc2c1,79,62.5,125,77,76,73,125,,,250,,,,,,,,,,
O=C(/C=C/c1c(Cl)cccc1Cl)c1ccco1,,62.5,62.5,,,11,125,250,125,250,250,inactive,inactive,,inactive,,,,,
O=C(/C=C/c1cccc(Br)c1)c1ccc2ccccc2c1,,125,250,11,14,,125,,125,250,,,,inactive,inactive,,,,,
O=C(/C=C/c1ccc(Cl)cc1Cl)c1ccc[nH]1,,7.8,15.6,,13,16,15.6,62.5,15.6,31.2,125,inactive,,,inactive,,,,,
GENTAMICIN,,,,,,,,,,,,,,,,0.3,0.2,0.4,0.25,0.25
